Legend:
[1] = system: HCV replicon in Huh-7 luc/neo cells; assay: Suppression of HCV replicon replication by conditioned media from compound-treated PBMC; assay type: cell-based, HCV type 1 b; conditions: Hepatitis C virus; conditioned media from compound-treated PBMC on Huh-7 luc/neo replicon cells (compounds 74 onward); read-out: PBMC HUH-7 EC50
Description: Activation of human TLR7 results in robust production of interferon by plasmacytoid dendritic cells present in human blood. The potential of compounds to induce interferon was evaluated by looking at the antiviral activity in the HCV replicon system upon incubation with conditioned media from peripheral blood mononuclear cells (PBMC). […] The assay utilized the stably transfected cell line Huh-7 luc/neo harboring an RNA encoding a bicistronic expression construct comprising the wild type NS3-NS5B regions of HCV type 1 b translated from an Internal Ribosome Entry Site (IRES) from encephalomyocarditis virus (EMCV), preceded by a reporter gene (Firefly-luciferase) and a selectable marker gene (neoR, neomycine phosphotransferase). The construct is flanked by 5′ and 3′ NTRs (non-translated regions) from HCV type 1 b. Continued culture of the replicon cells in the presence of G418 (neoR) is dependent on the replication of the HCV RNA. The stably transfected replicon cells that replicate HCV RNA autonomously and to high levels, encoding inter alia luciferase, were used for profiling of the conditioned cell culture media.
Briefly, PBMCs were prepared from buffy coats of at least two donors using a standard Ficoll centrifugation protocol. Isolated PBMCs were resuspended in RPMI medium supplemented with 10% human AB serum and 2×10^5 cells/well were dispensed into 384-well plates containing compounds (70 μL total volume). After overnight incubation, 10 μL of supernatant was transferred to 384-well plates containing 2.2×10^3 replicon cells/well in 30 μL (plated the day before). Following 24 hours of incubation, replication was measured by assaying luciferase activity using 40 μL/well Steady Lite Plus substrate (Perkin Elmer) and measured with ViewLux ultraHTS microplate imager (Perkin Elmer). […] Recombinant interferon α-2a (Roferon-A) was used as a standard control compound.

[2] = target: T1, human TLR8 (wild type sequence) (Homo sapiens, UniProt Q9NR97); assay: TLR8 cellular NFκB-luc reporter assay, wild type TLR8; assay type: cell-based; design: unit not given here; conditions: lowest effective concentration, wild type TLR8 (compounds 74 onward)
T1 construct: expressed in transfected cells; host or cells: HEK293
T1 sequence (Q9NR97 27-1041): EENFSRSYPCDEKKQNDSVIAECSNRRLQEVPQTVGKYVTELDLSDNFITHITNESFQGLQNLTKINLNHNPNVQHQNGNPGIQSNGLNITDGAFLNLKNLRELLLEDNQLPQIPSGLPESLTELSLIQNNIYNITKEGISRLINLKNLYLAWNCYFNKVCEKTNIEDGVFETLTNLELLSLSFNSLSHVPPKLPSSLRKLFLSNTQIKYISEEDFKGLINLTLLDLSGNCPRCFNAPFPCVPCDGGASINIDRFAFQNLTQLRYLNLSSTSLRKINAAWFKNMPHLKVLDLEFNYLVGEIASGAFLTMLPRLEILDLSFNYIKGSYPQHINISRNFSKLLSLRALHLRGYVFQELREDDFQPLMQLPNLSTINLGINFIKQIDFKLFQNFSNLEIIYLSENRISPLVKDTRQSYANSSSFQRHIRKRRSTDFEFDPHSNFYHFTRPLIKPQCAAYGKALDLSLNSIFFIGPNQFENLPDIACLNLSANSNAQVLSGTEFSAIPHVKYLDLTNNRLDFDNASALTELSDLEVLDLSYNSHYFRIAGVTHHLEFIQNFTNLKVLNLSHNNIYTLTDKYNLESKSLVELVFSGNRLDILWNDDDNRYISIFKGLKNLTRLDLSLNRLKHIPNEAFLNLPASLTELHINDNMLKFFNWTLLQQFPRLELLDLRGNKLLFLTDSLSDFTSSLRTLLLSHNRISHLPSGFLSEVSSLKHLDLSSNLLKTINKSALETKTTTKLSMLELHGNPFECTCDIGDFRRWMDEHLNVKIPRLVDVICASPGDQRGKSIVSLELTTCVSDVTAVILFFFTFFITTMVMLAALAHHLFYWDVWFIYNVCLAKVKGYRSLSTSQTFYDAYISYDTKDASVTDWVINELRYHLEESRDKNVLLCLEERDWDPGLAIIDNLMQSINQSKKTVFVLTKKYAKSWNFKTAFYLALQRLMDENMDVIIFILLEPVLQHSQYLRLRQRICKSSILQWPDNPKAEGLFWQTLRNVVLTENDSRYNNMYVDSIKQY
Description: (§1) The ability of compounds to activate human TLR7 and/or TLR8 was assessed in a cellular reporter assay using HEK293 cells transiently transfected with a TLR7 or TLR8 expression vector and NFκB-luc reporter construct. In one instance the TLR expression construct expresses the respective wild type sequence or a mutant sequence comprising a deletion in the second leucine-rich repeat of the TLR.
(§2) Briefly, HEK293 cells were grown in culture medium (DMEM supplemented with 10% FCS and 2 mM Glutamine). For transfection of cells in 10 cm dishes, cells were detached with Trypsin-EDTA, transfected with a mix of CMV-TLR7 or TLR8 plasmid (750 ng), NFκB-luc plasmid (375 ng) and a transfection reagent and incubated for 48 hours at 37° C. in a humidified 5% CO2 atmosphere. Transfected cells were then detached with Trypsin-EDTA, washed in PBS and resuspended in medium to a density of 1.67×10^5 cells/mL. Thirty microliters of cells were then dispensed into each well in 384-well plates, where 10 μL of compound in 4% DMSO was already present. Following 6 hours incubation at 37° C., 5% CO2, the luciferase activity was determined by adding 15 μl of Steady Lite Plus substrate (Perkin Elmer) to each well and readout performed on a ViewLux ultraHTS microplate imager (Perkin Elmer). Dose response curves were generated from measurements performed in quadruplicates. Lowest effective concentrations (LEC) values, defined as the concentration that induces an effect which is at least two fold above the standard deviation of the assay, were determined for each compound.

[3] = target: T2, human TLR7 (wild type sequence) (Homo sapiens, UniProt Q9NYK1); assay: TLR7 cellular NFκB-luc reporter assay, wild type TLR7; assay type: cell-based; design: unit not given here; conditions: lowest effective concentration, wild type TLR7 (compounds 74 onward)
T2 construct: expressed in transfected cells; host or cells: HEK293
T2 sequence (Q9NYK1 27-1049): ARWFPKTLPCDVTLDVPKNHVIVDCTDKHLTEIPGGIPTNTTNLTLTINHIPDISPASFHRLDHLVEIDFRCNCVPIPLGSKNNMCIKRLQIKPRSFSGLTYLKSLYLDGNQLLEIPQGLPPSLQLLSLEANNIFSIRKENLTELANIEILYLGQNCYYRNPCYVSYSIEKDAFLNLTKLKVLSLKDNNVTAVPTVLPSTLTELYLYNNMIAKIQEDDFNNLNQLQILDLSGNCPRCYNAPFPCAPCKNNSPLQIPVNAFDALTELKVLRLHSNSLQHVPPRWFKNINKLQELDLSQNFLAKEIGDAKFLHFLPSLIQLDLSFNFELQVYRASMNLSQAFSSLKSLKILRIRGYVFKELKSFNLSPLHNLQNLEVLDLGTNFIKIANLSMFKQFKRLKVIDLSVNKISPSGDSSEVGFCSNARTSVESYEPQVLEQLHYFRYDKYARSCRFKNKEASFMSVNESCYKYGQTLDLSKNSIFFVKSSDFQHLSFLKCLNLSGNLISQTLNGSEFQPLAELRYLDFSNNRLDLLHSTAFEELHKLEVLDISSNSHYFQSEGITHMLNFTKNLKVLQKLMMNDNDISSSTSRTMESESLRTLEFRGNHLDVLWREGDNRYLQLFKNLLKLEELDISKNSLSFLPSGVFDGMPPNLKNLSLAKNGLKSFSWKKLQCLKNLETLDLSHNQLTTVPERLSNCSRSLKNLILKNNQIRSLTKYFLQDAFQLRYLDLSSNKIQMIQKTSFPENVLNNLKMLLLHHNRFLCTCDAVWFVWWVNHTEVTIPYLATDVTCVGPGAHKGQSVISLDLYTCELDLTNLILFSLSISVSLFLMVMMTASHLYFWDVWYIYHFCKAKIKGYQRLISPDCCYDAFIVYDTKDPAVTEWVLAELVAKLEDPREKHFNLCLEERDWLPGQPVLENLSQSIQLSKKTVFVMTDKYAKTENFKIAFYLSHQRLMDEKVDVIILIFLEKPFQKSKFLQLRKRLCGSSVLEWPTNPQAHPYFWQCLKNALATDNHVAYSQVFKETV
Description: as §1, §2

| SMILES | EC50 [1] | TLR 8 wt LEC [2] | TLR 7 wt LEC [3] |
| --- | --- | --- | --- |
| CCCC[C@@H](CCO)Nc1nc(N)ncc1OCc1ncc(C)c(OC)c1C [Compound 75] | 0.007 µM | 0.218 | 0.023 |
| CCCC[C@H](Nc1nc(N)ncc1OCCCc1ccccc1)C(=O)OC [Compound 82] | 14 µM | 13.590 | 4.420 |
| CCCCNc1nc(N)ncc1OCCOCc1ccccc1 [Compound 83] | 0.204 µM | 1.610 | 0.997 |
| CCCCNc1nc(N)ncc1OCCOc1ccncc1 [Compound 84] | 0.076 µM | 0.250 | 0.860 |
| CCCCNc1nc(N)ncc1OCc1nn(C)c(C)c1N [Compound 85] | 0.209 µM | 2.960 | 0.509 |
| CCC[C@@H](CCO)Nc1nc(N)ncc1OCc1nccc(OC)c1OC [Compound 87] | 0.012 µM | 0.567 | 0.013 |
| CCC(CO)Nc1nc(N)ncc1OC (stereo not drawn) [Compound 92] | 20.2 µM | 14.570 | >25 |
| CCCCNc1nc(N)ncc1OCC(=O)c1ccc(OC)cc1 [Compound 94] | 0.696 µM | 3.170 | 1.590 |
| CCCCNc1nc(N)ncc1OCc1ccc(F)cc1 [Compound 95] | 0.726 µM | 2.010 | 2.730 |
| CCCCCNc1nc(N)ncc1OC(C)c1ccccc1 (stereo not drawn) [Compound 96] | 4.31 µM | 6.340 | >25 |
| COc1cnc(N)nc1NCCCCF [Compound 97] | 2.64 µM | 5.070 | 21.810 |
| CCCCNc1nc(N)ncc1O[C@H](C)c1ccccc1 [Compound 98] | 22 µM | 10.100 | >25 |
| CCCCNc1nc(N)ncc1O[C@@H](C)c1ccccc1 [Compound 99] | 1.28 µM | 1.820 | 8.980 |
| CCCCNc1nc(N)ncc1OCC1CCCO1 (stereo not drawn) [Compound 100] | 5.12 µM | 6.160 | 18.950 |
| CCCCNc1nc(N)ncc1OCc1ccccn1 [Compound 101] | 0.055 µM | 0.597 | 0.277 |
| CCCCNc1nc(N)ncc1OCc1cncn1[C@H](C)c1ccccc1 [Compound 102] | 0.012 µM | 5.690 | 0.141 |
| CCCCNc1nc(N)ncc1OCc1cccc(C(=O)c2ccccc2)c1 [Compound 103] | 0.725 µM | 1.270 | 1.190 |
| CCCCNc1nc(N)ncc1OCC(C)(O)CC (stereo not drawn) [Compound 104] | > 23.8 µM | 12.390 | >25 |
| CCCCNc1nc(N)ncc1OCC(C)(C)O [Compound 105] | 19.1 µM | 22.020 | >25 |
| CCCC(COC)Nc1nc(N)ncc1OC (stereo not drawn) [Compound 106] | 3.15 µM | 5.940 | 16.100 |
| CCCCNc1nc(N)ncc1OCCCc1ccc(F)cc1F [Compound 107] | 1.59 µM | 3.940 | 2.460 |
| CCCCNc1nc(N)ncc1OCCCc1ccccc1Br [Compound 108] | 6.77 µM | >25 | 6.580 |
| CCCCNc1nc(N)ncc1OCCCc1ccc(Cl)cc1 [Compound 109] | 0.393 µM | 2.230 | 0.790 |
| CCCCNc1nc(N)ncc1OCCCCc1ccccc1 [Compound 110] | 0.74 µM | 3.780 | 2.380 |
| CCCC(C)Nc1nc(N)ncc1OCCCc1ccccc1 (stereo not drawn) [Compound 112] | 3.35 µM | 5.560 | 3.960 |
| CCCC[C@@H](CCO)Nc1nc(N)ncc1OCCCc1ccccc1 [Compound 113] | 0.251 µM | 2.240 | 0.433 |
| CCCC(CCC)Nc1nc(N)ncc1OCCCc1ccccc1 [Compound 114] | 2 µM | >25 | 2.020 |
| CC[C@H](C)[C@@H](CO)Nc1nc(N)ncc1OCCCc1ccccc1 [Compound 115] | 3.73 µM | 6.510 | 6.180 |
| CCCCNc1nc(N)ncc1OCc1cc(-c2ccco2)on1 [Compound 116] | 0.066 µM | 1.610 | 0.652 |

From patent US11541050B2, “Pyrimidine derivatives for the treatment of viral infections” (JANSSEN SCIENCES IRELAND UC, priority 2011, dated 2023)
